What was measured:
Factor D = target: T1, Factor D (Homo sapiens, UniProt P00746); assay: BLI biosensor assay of Factor D cleavage of Factor B, anti-Bb antibody binding; format: biochemical
T1 construct: purchased Comptech (Tyler TX)

C5 convertase = C5 convertase activity on bio-C3b streptavidin-coated spheres, C5a measured with MSD (ECL) assay; format: biochemical; details: for ECL signal (amount of C5a produced by C5 convertase): C5 100 nM, 60 minutes
Method: The bio-C3b binding to streptavidin was performed in a 2.0 ml micro-centrifuge tube. Two hundred and forty […] of Spherotech beads, […] diameter, streptavidin coated spheres were first washed by centrifugation with 300 μL of 10 mM Tris, pH 8, and then resuspended in 200 μL of 10 mM Tris, pH 8. The spheres were incubated with bio-C3b or C3b at a concentration of 320 nM. Spheres were suspended by gentle shaking at 1350 RPM for 20 minutes at room temperature, and collected by centrifugation at 16 RCF for 10 minutes. The residual supernatant was removed and the beads are then washed to remove residual unbound bio-C3b.
C5 convertase was formed on the spheres by incubating the bio-C3b spheres with a Convertase Solution that included components of the AP, a divalent cation and buffer. The Convertase Solution consisted of Factor D, (10 nM), Factor B (400 nM), and NiCl2 (200 μM) in 10 mM Tris, pH 8.0. The spheres were suspended by gentle shaking at 1350 RPM for 20 minutes at 37° C. The spheres were centrifuged at 16×g (RCF) for 10 minutes, the supernatant is removed, and the spheres are resuspended in 1.2 ml of 10 mM Tris pH 8, 1 mM EDTA to a final concentration of 200 μg/ml.
Formation of C5a was accomplished by incubating C5, and the spheres in a Reaction Solution that included a divalent cation. The Reaction Solution was prepared by transferring to a microplate well: (i) […] of spheres with C5 convertase in 10 μl of the Convertase Solution; (ii) […] of a 500 μM NiCl2 solution; and (iii) […] of a 250 nM solution of C5 (5 pmoles). […]
Following the incubation, the reaction was stopped by adding 10 μL of a 500 mM EDTA in 10 mM Tris, pH=8.0. (Total Volume=60 μl)
The amount of C5a in the Reaction Solution was measured with an MSD assay, similar to an ELISA. The neo-epitope anti-C5a antibody, BNJ383, captured soluble C5a, binding it to a well in a microplate. BNJN383 has a high affinity for C5a but a low affinity for C5. The detection reagent was a mouse anti-C5a antibody that binds the C5a captured on the plate, and a SULFO-TAG™ modified anti-mouse secondary antibody that bound the mouse antibody, and generated an ECL signal.
To wells of a high binding 96-well microplate (MSD Catalog No. L15XB-3) was added BNJ383 (0.3 pmoles,)[…]/mL in 25 μL of a carbonate-bicarbonate buffer at pH 9.4. The microplate was sealed and incubated at 37° C. for 60 minutes. […]
The wells were sealed with a foil seal and incubated in the dark for 30 minutes. […] One hundred and fifty μL of 2X MSD Read Buffer containing tripropylamine as an electron carrier was added to the wells using a negative pipetting technique. The microplate was read on an MSD imager to measure the ECL signal generated by the SULFO-TAG™ affixed to the goat secondary antibody. […]

T1 sequence (P00746 26-253): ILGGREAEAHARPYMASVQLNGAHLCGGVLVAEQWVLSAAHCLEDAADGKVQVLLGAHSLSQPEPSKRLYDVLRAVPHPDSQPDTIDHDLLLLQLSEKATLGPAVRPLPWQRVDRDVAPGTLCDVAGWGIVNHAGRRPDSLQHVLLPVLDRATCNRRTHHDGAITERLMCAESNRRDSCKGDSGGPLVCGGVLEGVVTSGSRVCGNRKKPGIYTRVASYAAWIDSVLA

| Compound | Effect on Factor D activity (Factor D; DCIC 23 μM and 35 μM) | Effect on Factor D activity (Factor D; DCIC 178 μM, 267 μM and 400 μM) | Effect on convertase activity (C5 convertase; OmCI 50 nM) | ECL signal (amount of C5a produced by C5 convertase) (C5 convertase; OmCI 50 nM) | drop of ECL signal (C5 convertase; OmCI 100 nM) [fold] | ECL signal (amount of C5a produced by C5 convertase) (C5 convertase; OmCI 100 nM) |
| --- | --- | --- | --- | --- | --- | --- |
| O=c1oc(Cl)c(Cl)c2ccccc12 [DCIC, 3,4-Dichloroisocoumarin] | minimal effect | maximally inhibited | – | – | – | – |
| OmCI: tick saliva complement inhibitor, a C5 binding protein that reduces access of the C5 convertase to the C5 cleavage site | – | – | essentially no effect | 40,000 | 8 | 5000 |

Source: patent publication US20230265481A1, “METHOD FOR MEASURING THE PROTEASE ACTIVITY OF C3 AND C5 CONVERTASE OF THE ALTERNATIVE COMPLEMENT PATHWAY” (Alexion Pharmaceuticals, Inc., priority 2015, published 2023)
